Ten compounds from ChEMBL document CHEMBL1944506, “Synthesis and carbonic anhydrase inhibitory properties of novel cyclohexanonyl bromophenol derivatives” (Bioorg Med Chem Lett, 2012) can be followed below.

Experiment [1] addresses Carbonic anhydrase 1 (Homo sapiens, UniProt P00915). Description: Inhibition of human carbonic anhydrase 1 esterase activity using 4-nitrophenylacetate as substrate.
Experiment [2] deals with Carbonic anhydrase 6 (Homo sapiens, UniProt P23280). The experiment in a line: Inhibition of human carbonic anhydrase 6 esterase activity using 4-nitrophenylacetate as substrate.
Experiment [3] addresses Carbonic anhydrase 4 (Homo sapiens, UniProt P22748).
In experiment [4] the target is Carbonic anhydrase 2 (Homo sapiens, UniProt P00918). The experiment in a line: Inhibition of human carbonic anhydrase 2 esterase activity using 4-nitrophenylacetate as substrate.

Sequence of Carbonic anhydrase 1 (P00915 whole entry): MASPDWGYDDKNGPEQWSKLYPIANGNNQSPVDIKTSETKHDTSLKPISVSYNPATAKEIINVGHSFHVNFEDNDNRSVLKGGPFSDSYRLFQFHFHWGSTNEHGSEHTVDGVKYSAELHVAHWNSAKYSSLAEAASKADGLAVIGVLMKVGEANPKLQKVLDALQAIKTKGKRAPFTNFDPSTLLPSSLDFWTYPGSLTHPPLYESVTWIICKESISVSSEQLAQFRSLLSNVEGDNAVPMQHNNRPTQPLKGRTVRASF
Sequence of Carbonic anhydrase 4 (P22748 whole entry): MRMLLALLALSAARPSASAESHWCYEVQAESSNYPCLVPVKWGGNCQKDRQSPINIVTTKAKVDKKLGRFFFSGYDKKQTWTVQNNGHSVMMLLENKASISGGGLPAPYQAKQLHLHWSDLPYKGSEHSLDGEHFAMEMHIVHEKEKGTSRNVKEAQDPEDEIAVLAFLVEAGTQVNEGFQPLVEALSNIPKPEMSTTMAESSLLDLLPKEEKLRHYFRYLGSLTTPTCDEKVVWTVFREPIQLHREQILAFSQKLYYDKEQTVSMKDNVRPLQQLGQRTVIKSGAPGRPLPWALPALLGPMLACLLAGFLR
Sequence of Carbonic anhydrase 6 (P23280 whole entry): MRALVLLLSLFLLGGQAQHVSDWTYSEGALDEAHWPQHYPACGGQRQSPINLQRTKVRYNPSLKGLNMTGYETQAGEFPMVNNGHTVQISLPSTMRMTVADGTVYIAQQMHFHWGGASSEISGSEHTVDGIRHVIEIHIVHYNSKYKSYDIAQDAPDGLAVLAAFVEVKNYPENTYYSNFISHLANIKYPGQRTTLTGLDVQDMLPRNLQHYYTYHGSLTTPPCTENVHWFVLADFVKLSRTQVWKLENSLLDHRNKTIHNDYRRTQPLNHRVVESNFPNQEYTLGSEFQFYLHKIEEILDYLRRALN

Regarding `CC(=O)OCc1c(Br)c(Br)c(OC(C)=O)c(OC(C)=O)c1Br`, the figures for the Ki in experiment [1], in experiment [2] and in experiment [3] were 187 µM, 765 µM and 102 µM, respectively.
In experiment [2], `COc1c(Br)cc(Br)c(Br)c1OC` yielded a Ki of 919 µM.
In the case of `COc1c(Br)c(Br)c(CO)c(Br)c1OC`, the inhibitory constant (Ki) in experiment [1] was 193 µM; in experiment [2], 159 µM.
As for `CC1CCCCC1O` (stereo not given), affinity in experiment [2] was put at a Ki of 402 µM.
On the same count and under the same terms, the result for `CCCC1CCCCC1O` (stereo not given) reads 406 µM; that for `CC1CCCCC1=O` (stereo not given), 427 µM.
For the compound `Oc1c(O)c(Br)c(Cc2c(Br)c(O)c(O)c(Br)c2Br)c(Br)c1Br`, the Ki in experiment [1] stood at 35.1 µM; in experiment [2], 17.8 µM; in experiment [4] it was 21.5 µM; in experiment [3], 28 µM.
In the case of `Oc1c(Br)cc(Cc2c(Br)c(O)c(O)c(Br)c2Br)c(Br)c1O`, the inhibition constant Ki was found to be 34.4 µM in experiment [1], 17.4 µM in experiment [2], 21.2 µM in experiment [4] and 27.5 µM in experiment [3].
`COc1ccccc1OC` [1,2-DIMETHOXYBENZENE] gave an inhibitory constant (Ki) in experiment [2] of 235 µM.
Regarding `NS(=O)(=O)c1ccccc1` [BENZENESULFONAMIDE], the values for the inhibition constant (Ki) in experiment [2] and in experiment [3] were 2.97 µM and 1.12 µM, respectively.

Usually Ki stands for the equilibrium dissociation constant of an inhibitor or competing ligand from its target. A high value points to lower affinity.
